Measured values published in patent US20240343706A1, “PIPERIDINE-2,6-DIONE DERIVATIVES WHICH BIND TO CEREBLON, AND METHODS OF USE THEREOF” (Captor Therapeutics S.A., priority 2019, published 2024).

Legend:
[1] = target: CRBN-DDB1 protein complex (Homo sapiens, UniProt Q96SW2); experiment: Fluorescence polarization (FP) assay, displacement of Cy5-labelled thalidomide; settings: 25 nM CRBN-DDB1, 5 nM Cy5-labelled thalidomide, read-out: CRBN binding Ki
Experimental: CRBN-DDB1 protein complex was mixed with Cy5-labelled thalidomide and a compound to be tested (the “test compound”). […] The test solution was added to a 384-well assay plate.
The plate was spun-down (1 min, 1000 rpm, 22° C.) and then shaken using a VibroTurbulator for 10 min at room temperature (20-25° C.), with the frequency set to level 3. The assay plate with protein and the tracer was incubated for 60 min at room temperature (20-25° C.) prior to read-out with a plate reader.
The FP experiment was carried out with various concentrations of the test compounds in order to measure Ki values.

SALL4 = SALL4 degradation assay, Kelly cell line (western blot densitometry); type: cell-based; settings: Kelly cells; for % of protein reduction based on densitometry values, SALL4 (24 H): summary Table 10, 20 μM (some compounds 10 and 20 μM); for % of SALL4 protein reduction, based on densitometry values: 24 h
Text: (§1) After primary and secondary Ab staining, the membranes were washed and signals developed. The densitometry analysis was implemented to obtain the numeric values used later in the protein level evaluation process.

CK1α = CK1α degradation assay, Kelly cell line (western blot densitometry); type: cell-based; settings: Kelly cells; for % of protein reduction based on densitometry values, CK1α (24 H): summary Table 10, 20 μM (some compounds 10 and 20 μM); for % of CK1α protein reduction, based on densitometry values: 24 h
Text: as §1

IKZF1 = IKZF1 degradation assay, H929 cell line (western blot densitometry); type: cell-based; settings: H929 cells; for % of protein reduction based on densitometry values, IKZF 1 (24 H): summary Table 10, 20 μM (some compounds 10 and 20 μM); for % of IKZF1 α protein reduction based on densitometry values: 24 h
Text: as §1

IKZF3 = IKZF3 degradation assay, H929 cell line (western blot densitometry); type: cell-based; settings: H929 cells; for % of IKZF3 protein reduction based on densitometry values, IKZF3 Band I / % of IKZF3 protein reduction based on densitometry values, IKZF3 Band II: 24 h

CRBN-DDB1 protein complex, sequence (Q96SW2 whole entry): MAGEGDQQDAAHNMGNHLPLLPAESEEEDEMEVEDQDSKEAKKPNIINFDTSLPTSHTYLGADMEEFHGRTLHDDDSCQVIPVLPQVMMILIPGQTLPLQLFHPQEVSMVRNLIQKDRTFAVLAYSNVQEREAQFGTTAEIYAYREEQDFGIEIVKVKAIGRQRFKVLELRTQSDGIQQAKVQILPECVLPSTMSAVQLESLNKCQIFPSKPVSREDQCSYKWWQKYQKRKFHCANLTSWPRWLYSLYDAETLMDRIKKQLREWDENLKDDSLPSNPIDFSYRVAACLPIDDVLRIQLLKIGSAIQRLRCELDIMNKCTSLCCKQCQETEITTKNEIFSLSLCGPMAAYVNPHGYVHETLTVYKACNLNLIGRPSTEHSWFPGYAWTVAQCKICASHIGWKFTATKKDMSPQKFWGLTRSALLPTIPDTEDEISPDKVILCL
CRBN-DDB1 protein complex, sequence (Q16531 whole entry partner): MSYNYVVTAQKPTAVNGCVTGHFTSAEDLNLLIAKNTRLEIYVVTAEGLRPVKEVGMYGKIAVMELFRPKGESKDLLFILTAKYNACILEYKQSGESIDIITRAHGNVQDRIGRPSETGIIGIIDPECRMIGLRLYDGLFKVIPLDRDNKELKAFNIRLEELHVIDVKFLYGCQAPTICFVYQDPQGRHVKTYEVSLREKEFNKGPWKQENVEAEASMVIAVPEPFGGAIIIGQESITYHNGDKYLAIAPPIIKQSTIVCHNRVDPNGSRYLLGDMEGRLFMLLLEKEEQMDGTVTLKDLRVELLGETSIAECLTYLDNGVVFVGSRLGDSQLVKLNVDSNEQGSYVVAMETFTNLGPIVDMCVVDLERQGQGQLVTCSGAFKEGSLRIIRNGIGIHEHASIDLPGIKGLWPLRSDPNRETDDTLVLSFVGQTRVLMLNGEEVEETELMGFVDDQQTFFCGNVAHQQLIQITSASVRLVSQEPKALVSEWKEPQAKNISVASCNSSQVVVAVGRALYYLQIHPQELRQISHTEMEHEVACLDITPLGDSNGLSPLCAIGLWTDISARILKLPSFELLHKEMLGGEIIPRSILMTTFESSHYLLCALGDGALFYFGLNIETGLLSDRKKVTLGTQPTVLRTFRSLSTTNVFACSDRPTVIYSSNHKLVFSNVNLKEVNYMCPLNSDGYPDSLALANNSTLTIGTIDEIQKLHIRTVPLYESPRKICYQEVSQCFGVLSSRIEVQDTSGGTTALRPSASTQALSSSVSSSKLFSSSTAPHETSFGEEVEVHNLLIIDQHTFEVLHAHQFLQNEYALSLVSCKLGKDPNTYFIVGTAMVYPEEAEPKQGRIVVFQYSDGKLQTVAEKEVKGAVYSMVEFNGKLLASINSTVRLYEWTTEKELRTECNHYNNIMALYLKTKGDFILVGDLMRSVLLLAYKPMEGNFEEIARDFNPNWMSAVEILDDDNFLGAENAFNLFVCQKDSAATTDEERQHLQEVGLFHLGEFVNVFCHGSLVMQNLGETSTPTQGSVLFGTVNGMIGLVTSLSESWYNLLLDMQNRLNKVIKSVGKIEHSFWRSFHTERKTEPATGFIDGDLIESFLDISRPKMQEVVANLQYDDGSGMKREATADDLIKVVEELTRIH

Row | SMILES | Ki [1] | % of protein reduction based on densitometry values, SALL4 (24 H) (SALL4) | % of protein reduction based on densitometry values, CK1α (24 H) (CK1α) | % of protein reduction based on densitometry values, IKZF 1 (24 H) (IKZF1) | % of SALL4 protein reduction, based on densitometry values (SALL4; 10 μM) | % of SALL4 protein reduction, based on densitometry values (SALL4; 20 μM) | % of CK1α protein reduction, based on densitometry values (CK1α; 10 μM) | % of CK1α protein reduction, based on densitometry values (CK1α; 20 μM) | % of IKZF1 α protein reduction based on densitometry values (IKZF1; 10 μM) | % of IKZF1 α protein reduction based on densitometry values (IKZF1; 20 μM) | % of IKZF3 protein reduction based on densitometry values, IKZF3 Band I (IKZF3; 10 μM) | % of IKZF3 protein reduction based on densitometry values, IKZF3 Band II (IKZF3; 10 μM) | % of IKZF3 protein reduction based on densitometry values, IKZF3 Band I (IKZF3; 20 μM) | % of IKZF3 protein reduction based on densitometry values, IKZF3 Band II (IKZF3; 20 μM) | % of protein reduction based on densitometry values, IKZF3 (24 H) (IKZF3; summary Table 10, 24 H, 10 and 20 μM)
1 | O=C1CCC(NC(=O)c2cc(F)cc3[nH]cnc23)C(=O)N1 (centres unmarked) [Compound 8, N-(2,6-dioxopiperidin-3-yl)-6-fluoro-1H-benzo[d]imidazole-4-carboxamide] | 1 to 10 µM | ≤25% (≤25% for 0-25% of SALL4 protein reduction) | ≤25% (≤25% for 0-25% of CK1a protein reduction) | ≤25% (≤25% for 0-25% of IKZF1 protein reduction) | – | – | – | – | – | – | – | – | – | – | –
2 | O=C1CCC(NC(=O)c2c(F)ccc3[nH]cnc23)C(=O)N1 (centres unmarked) [Compound 7, N-(2,6-dioxopiperidin-3-yl)-5-fluoro-1H-benzo[d]imidazole-4-carboxamide] | 1 to 10 µM | ≤25% (≤25% for 0-25% of SALL4 protein reduction) | ≤25% (≤25% for 0-25% of CK1a protein reduction) | ≤25% (≤25% for 0-25% of IKZF1 protein reduction) | – | – | – | – | – | – | – | – | – | – | –
3 | Nc1cccc2c1C(=O)N(C1CCC(=O)NC1=O)C2=O (centres unmarked) [Pomalidomide, reference compound] | – | ≥75% (≥75% for 75-100% of SALL4 protein reduction) | >25% (>25% for 26-74% of CK1a protein reduction) | ≥75% (≥75% for 75-100% of IKZF1 protein reduction) | ≥75% (≥75% for 75-100% of SALL4 protein reduction) | ≥75% (≥75% for 75-100% of SALL4 protein reduction) | >25% (>25% for 26-74% of CK1a protein reduction) | >25% (>25% for 26-74% of CK1a protein reduction) | ≥75% (≥75% for 75-100% of IKZF1 protein reduction) | ≥75% (≥75% for 75-100% of IKZF1 protein reduction) | ≥75% (≥75% for 75-100% of IKZF3 protein reduction) | ≥75% (≥75% for 75-100% of IKZF3 protein reduction) | ≥75% (≥75% for 75-100% of IKZF3 protein reduction) | ≥75% (≥75% for 75-100% of IKZF3 protein reduction) | ≥75% (≥75% for 75-100% of IKZF3 protein reduction)
4 | Cn1cnc2c(C(=O)NC3CCC(=O)NC3=O)cccc21 (centres unmarked) [Compound 4, N-(2,6-dioxopiperidin-3-yl)-1-methyl-1H-benzo[d]imidazole-4-carboxamide] | 1 to 10 µM | ≤25% (≤25% for 0-25% of SALL4 protein reduction) | ≤25% (≤25% for 0-25% of CK1a protein reduction) | ≤25% (≤25% for 0-25% of IKZF1 protein reduction) | – | – | – | – | – | – | – | – | – | – | –
5 | O=C1CCC(NC(=O)c2cccc3[nH]c(=O)[nH]c23)C(=O)N1 (centres unmarked) [Compound 3, N-(2,6-dioxopiperidin-3-yl)-2-oxo-2,3-dihydro-1H-benzo[d]imidazole-4-carboxamide] | – | ≤25% (≤25% for 0-25% of SALL4 protein reduction) | ≤25% (≤25% for 0-25% of CK1a protein reduction) | ≤25% (≤25% for 0-25% of IKZF1 protein reduction) | – | – | – | – | – | – | – | – | – | – | –
